The values that follow come from ChEMBL document CHEMBL1201862, “PubChem BioAssay data set” (2004).

The term IC50 denotes the concentration that gives 50% inhibition. Usually EC50 stands for the midpoint of the concentration-response curve. A word on the AC50: it is the concentration giving half of the maximal activity seen.

Counter-ions that a name gives are not always drawn. Calls of active or inactive are those of the source.

In assay [1] the test system is HEK293. Put plainly: HEK cell cytotoxicity by LDH release, dose response, cytotoxicity control for IDE activator project, fluorescence, HEK cells (AID 588440).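 Note: cytotoxicity by LDH release measuring loss of membrane integrity.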 Type of assay: functional, cell-based. The note with it: Homo sapiens. (In general: LDH in the medium is a marker of cell lysis.)
The target of assay [2] is T1, Apoptotic protease-activating factor 1 (Homo sapiens, UniProt O14727).
T1 sequence (O14727 whole entry): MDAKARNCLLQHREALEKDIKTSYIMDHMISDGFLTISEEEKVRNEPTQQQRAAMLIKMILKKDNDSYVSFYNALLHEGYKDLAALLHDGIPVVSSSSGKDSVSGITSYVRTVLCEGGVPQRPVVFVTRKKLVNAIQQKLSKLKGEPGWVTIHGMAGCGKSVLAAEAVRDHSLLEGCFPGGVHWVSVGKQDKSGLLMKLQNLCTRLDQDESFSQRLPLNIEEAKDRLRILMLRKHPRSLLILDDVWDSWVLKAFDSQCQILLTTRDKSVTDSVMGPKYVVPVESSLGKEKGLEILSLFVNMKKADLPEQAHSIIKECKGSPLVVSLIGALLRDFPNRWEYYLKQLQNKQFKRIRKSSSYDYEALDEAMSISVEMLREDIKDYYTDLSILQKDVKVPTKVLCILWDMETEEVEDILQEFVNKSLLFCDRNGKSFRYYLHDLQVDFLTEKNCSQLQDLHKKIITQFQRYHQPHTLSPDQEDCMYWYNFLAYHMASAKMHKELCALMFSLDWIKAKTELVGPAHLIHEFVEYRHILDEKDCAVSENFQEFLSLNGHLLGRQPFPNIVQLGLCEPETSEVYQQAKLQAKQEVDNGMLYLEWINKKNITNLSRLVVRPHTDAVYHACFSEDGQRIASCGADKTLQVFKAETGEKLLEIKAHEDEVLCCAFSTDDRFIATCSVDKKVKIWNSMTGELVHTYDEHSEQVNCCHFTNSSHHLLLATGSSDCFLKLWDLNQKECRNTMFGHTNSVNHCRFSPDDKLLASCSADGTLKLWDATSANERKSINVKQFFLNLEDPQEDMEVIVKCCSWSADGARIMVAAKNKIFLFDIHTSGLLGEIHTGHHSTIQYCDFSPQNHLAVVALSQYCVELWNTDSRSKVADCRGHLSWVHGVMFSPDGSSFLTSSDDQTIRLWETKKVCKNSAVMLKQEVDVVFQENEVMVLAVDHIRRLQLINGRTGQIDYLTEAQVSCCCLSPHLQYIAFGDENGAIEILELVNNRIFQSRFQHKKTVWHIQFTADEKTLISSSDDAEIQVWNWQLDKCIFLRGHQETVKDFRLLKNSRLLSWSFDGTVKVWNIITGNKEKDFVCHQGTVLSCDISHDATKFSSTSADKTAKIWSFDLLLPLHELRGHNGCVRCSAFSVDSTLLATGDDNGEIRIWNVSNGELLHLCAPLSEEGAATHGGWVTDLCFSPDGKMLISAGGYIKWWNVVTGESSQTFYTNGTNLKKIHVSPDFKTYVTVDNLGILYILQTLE
It is filed as functional.

Assay [3] has as its target T2, Ubiquitin-conjugating enzyme E2 N (Homo sapiens, UniProt P61088).
T2 sequence (P61088 whole entry): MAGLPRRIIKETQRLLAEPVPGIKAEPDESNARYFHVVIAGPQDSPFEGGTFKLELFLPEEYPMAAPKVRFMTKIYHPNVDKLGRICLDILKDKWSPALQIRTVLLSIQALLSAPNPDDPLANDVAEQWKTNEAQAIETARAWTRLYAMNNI
It is filed as functional.

For assay [4], the target named is T3, Insulin-degrading enzyme (Homo sapiens, UniProt P14735).
T3 sequence (P14735 whole entry): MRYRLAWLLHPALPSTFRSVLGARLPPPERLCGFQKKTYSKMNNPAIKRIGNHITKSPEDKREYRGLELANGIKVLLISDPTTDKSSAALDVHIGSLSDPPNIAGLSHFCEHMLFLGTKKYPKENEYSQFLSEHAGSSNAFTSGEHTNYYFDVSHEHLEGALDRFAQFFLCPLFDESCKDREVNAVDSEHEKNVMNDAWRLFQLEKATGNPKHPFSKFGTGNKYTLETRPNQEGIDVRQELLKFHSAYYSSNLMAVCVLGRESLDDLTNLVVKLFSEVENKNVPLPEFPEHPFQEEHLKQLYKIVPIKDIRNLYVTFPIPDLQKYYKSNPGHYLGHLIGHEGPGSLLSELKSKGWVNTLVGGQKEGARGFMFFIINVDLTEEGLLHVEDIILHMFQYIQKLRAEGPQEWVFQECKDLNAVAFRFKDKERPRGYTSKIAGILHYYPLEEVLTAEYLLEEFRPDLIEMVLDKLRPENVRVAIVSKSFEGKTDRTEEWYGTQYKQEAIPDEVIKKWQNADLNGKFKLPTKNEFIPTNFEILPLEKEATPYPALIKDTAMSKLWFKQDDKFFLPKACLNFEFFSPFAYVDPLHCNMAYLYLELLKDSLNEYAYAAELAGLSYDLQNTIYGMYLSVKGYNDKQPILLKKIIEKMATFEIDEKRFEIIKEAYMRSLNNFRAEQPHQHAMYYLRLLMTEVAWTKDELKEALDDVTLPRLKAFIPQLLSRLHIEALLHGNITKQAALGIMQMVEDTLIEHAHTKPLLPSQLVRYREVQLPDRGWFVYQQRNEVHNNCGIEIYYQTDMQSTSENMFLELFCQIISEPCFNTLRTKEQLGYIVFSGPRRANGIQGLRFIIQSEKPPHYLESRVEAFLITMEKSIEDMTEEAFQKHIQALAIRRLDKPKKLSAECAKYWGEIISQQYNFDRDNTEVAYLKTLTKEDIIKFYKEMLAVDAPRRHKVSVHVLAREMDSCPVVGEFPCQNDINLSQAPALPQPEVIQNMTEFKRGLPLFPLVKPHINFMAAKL
The experiment in a line: activators of endogenous IDE in HEK cells, dose response, cell-based, fluorescence polarization (AID 588439). It is filed as functional. On the technique in general: In fluorescence polarisation assays a small probe gives low polarisation when free and higher when bound to something large.

A further assay addresses T4, Bcl-2-related protein A1 (Mus musculus, UniProt Q07440).
T4 sequence (Q07440 whole entry): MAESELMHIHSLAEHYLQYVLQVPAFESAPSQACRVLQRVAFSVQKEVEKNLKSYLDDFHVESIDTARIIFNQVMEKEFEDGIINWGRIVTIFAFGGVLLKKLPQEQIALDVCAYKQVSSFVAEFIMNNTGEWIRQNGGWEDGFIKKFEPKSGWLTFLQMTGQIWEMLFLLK
It is filed as functional.

Assay [5] concerns the target T3, Insulin-degrading enzyme. The experiment in a line: activators of recombinant IDE enzyme, dose response, counter-screen for IDE activator project, biochemical, fluorescence polarization (AID 588681). (In general: Counterscreens check selectivity or assay interference.)
For assay [6], the target named is T2, Ubiquitin-conjugating enzyme E2 N. It is filed as functional. The source holds these as a separate data set.
Assay [7] has as its system HEK293. The experiment in a line: optical interference in Abeta FP readout, dose response, artefact control for IDE activator project, biochemical, fluorescence polarization (AID 588442). The note with it: Homo sapiens. Type of assay: functional, cell-based.
Assay [8] can be described thus: CAL PDZ domain peptide-binding inhibitors, dose response, biochemical, fluorescence polarization, untagged CAL PDZ, cherry-pick, set 2 (AID 602254). Type of assay: functional.
Assay [9] has as its target 26S proteasome non-ATPase regulatory subunit 14 (Homo sapiens, UniProt O00487). Put plainly: inhibition of proteasome subunit RPN11 – biochemical, fluorescence polarization, uHTS hits, confirmation (AID 602368). It is filed as functional.
The target of a further assay is Cytochrome P450 2D6 (Homo sapiens, UniProt P10635).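 Note: CYP2D6 member of a cytochrome P450 panel assay.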
Chain of Cytochrome P450 2D6 (P10635 whole entry): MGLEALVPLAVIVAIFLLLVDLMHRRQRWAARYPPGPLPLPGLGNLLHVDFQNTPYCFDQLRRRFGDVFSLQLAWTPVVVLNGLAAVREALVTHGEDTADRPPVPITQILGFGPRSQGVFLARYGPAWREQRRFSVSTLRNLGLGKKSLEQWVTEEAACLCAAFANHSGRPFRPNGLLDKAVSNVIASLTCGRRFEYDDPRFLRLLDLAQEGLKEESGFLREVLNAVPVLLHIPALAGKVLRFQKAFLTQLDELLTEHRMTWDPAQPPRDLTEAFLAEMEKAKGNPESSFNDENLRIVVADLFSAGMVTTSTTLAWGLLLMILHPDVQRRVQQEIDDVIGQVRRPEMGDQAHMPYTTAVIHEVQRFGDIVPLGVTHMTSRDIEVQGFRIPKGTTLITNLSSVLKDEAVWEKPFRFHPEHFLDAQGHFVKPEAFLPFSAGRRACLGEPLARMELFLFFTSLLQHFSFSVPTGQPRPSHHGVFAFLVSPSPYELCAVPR
For a further assay, the target named is T5, Cytochrome P450 1A2 (Homo sapiens, UniProt P05177).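 Note: PubChem cytochrome P450 panel assay, CYP1A2 panel member.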
T5 sequence (P05177 whole entry): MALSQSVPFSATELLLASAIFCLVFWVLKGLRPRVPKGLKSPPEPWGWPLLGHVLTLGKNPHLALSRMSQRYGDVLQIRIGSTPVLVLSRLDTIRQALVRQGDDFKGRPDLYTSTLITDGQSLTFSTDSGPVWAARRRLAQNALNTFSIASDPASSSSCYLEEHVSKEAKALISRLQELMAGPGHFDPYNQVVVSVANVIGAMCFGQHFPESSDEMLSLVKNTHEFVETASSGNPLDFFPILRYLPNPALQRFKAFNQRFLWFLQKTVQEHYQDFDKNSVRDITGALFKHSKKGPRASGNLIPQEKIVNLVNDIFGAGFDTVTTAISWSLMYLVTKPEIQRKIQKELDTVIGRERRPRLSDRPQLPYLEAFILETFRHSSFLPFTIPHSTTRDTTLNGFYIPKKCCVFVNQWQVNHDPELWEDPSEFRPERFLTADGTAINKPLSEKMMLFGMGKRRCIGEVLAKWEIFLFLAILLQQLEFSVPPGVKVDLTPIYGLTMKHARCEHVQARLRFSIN

The next assay concerns the target Prothrombin (Bos taurus, UniProt P00735). The experiment in a line: thrombin inhibition, dose response, biochemical, fluorescence polarization, uHTS hits (AID 602369). It is filed as functional.
Assay [10] deals with 72 kDa type IV collagenase (Homo sapiens, UniProt P08253). Put plainly: Dose Response validation of uHTS RPN11 inhibitor hits using a MMP-2 Fluorescence assay. Type of assay: functional.
Chain of 72 kDa type IV collagenase (P08253 whole entry): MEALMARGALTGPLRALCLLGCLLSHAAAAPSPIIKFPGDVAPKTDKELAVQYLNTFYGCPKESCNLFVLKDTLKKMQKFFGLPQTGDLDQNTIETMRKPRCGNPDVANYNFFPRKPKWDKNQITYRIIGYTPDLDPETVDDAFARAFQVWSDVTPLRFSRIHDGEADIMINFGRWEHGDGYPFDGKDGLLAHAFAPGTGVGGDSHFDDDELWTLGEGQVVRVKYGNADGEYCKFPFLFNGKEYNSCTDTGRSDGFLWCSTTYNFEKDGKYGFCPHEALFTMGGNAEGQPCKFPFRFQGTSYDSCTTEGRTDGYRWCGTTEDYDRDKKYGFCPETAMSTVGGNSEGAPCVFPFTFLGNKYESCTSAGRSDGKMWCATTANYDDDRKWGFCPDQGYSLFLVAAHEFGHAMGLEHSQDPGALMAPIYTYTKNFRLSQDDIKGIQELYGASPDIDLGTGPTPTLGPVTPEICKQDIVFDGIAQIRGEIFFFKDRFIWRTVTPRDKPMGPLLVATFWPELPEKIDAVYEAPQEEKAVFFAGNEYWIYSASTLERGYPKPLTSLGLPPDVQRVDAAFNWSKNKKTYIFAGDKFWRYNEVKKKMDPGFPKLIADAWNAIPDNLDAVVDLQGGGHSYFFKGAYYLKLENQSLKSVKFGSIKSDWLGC
The next assay deals with SUMO-activating enzyme (Homo sapiens, UniProt Q9UBT2). The experiment in a line: inhibitors of in vitro SUMOylation cascade, primary screen, biochemical, HTRF, uHTS (AID 2006). Type of assay: protein-complex assay.
Chain of SUMO-activating enzyme (Q9UBE0 whole entry): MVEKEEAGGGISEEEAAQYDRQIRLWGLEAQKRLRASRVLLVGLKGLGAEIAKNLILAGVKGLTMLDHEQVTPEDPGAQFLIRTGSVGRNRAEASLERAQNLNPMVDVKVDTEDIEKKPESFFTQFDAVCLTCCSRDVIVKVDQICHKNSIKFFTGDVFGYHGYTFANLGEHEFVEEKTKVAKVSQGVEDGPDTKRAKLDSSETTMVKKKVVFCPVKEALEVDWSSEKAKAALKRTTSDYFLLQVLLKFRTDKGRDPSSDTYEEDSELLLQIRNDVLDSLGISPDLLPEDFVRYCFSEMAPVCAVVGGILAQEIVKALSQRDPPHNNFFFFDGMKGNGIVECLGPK
Chain of SUMO-activating enzyme (Q9UBT2 whole entry): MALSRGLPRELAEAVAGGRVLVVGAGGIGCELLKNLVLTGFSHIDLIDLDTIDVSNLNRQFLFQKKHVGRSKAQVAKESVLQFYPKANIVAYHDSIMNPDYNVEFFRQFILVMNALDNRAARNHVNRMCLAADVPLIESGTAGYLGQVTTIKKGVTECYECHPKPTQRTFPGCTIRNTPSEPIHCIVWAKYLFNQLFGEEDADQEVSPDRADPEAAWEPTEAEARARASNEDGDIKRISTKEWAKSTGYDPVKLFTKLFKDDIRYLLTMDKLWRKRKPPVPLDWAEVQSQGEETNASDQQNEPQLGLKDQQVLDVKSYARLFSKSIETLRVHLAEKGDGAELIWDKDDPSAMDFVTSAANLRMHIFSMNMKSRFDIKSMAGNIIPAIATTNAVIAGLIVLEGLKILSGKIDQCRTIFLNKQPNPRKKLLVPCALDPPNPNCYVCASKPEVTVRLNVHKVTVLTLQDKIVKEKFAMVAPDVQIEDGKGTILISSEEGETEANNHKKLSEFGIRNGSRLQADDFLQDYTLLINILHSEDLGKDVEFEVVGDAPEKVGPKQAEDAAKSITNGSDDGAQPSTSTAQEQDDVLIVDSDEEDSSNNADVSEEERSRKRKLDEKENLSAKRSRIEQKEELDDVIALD
The nature of assay [11]: cytotoxicity in HEK-293T cells, dose response, cytotoxicity control for BCR NF-kB inhibitor project, luminescence, B-cell screen hits (AID 489021).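 Note: HEK-293T cells carrying an NF-kB luciferase reporter; cells exposed to compound for about 14 hours before viability readout.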 Type of assay: functional, cell-based.
Assay [12] deals with Neurotensin receptor type 1 (Homo sapiens, UniProt P30989). It is filed as functional.
Chain of Neurotensin receptor type 1 (P30989 whole entry): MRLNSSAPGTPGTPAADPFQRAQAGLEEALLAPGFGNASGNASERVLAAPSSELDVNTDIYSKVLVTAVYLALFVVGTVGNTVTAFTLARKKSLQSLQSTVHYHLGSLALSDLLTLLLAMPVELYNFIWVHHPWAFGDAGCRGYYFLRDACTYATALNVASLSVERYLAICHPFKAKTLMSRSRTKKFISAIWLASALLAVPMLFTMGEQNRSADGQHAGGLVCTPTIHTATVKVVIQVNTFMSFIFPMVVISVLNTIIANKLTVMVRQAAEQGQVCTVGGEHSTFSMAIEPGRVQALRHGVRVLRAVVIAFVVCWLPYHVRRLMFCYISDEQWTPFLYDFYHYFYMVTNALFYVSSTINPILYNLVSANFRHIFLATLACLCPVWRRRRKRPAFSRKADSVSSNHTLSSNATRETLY
Assay [13] in a line: nonselective inhibitors of cellular cAMP signaling, dose response, counter-screen for MC4R biased antagonist project, cell-based, TR-FRET cAMP detection (AID 602305).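 Note: U2OS cells stimulated with forskolin near its EC80 as the cAMP inducer; potency is for inhibition of forskolin-stimulated cAMP signaling.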 It is filed as functional.
The nature of assay [14]: Luminescence Cell-Based Dose Retest to Confirm Inhibitors of Cancer Stem Cells. [Related pubchem assays (depositor defined):AID2717, AID2721]. Type of assay: functional. The note with it: Homo sapiens.
Another assay addresses Melanocortin receptor 4 (Homo sapiens, UniProt P32245). The experiment in a line: MC4R antagonist potency on cAMP, dose response, cell-based, TR-FRET, biased antagonists (AID 602298).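 Note: antagonist potency against agonist-stimulated cAMP production.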 Type of assay: functional.
In assay [15] the test system is HEK293. The experiment in a line: inhibitors of LMP1-driven NF-kB reporter, dose response, cell-based, HEK293, luciferase, cherry-pick (AID 588343). It is filed as functional. The note with it: Homo sapiens.
A further assay has as its system INS1. Put plainly: beta cell apoptosis inhibitors, cytokine rescue, dose response, luminescence, retest (AID 449756).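 Note: cell death triggered by IL-1 beta plus TNF-alpha plus IFN-gamma mixture; protective hits raise ATP signal compared with cytokine alone wells.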 The note with it: Rattus norvegicus. It is filed as functional, cell-based.

Chain of 26S proteasome non-ATPase regulatory subunit 14 (O00487 whole entry): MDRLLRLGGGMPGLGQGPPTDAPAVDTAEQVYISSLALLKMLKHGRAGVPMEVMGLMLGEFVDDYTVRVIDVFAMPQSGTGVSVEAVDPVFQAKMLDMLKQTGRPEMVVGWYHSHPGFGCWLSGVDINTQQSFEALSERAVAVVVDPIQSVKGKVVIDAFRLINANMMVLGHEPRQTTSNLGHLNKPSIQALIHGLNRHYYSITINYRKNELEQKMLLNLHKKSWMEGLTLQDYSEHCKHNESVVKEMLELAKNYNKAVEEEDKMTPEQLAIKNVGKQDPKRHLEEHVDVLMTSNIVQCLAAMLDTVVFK
Chain of Melanocortin receptor 4 (P32245 whole entry): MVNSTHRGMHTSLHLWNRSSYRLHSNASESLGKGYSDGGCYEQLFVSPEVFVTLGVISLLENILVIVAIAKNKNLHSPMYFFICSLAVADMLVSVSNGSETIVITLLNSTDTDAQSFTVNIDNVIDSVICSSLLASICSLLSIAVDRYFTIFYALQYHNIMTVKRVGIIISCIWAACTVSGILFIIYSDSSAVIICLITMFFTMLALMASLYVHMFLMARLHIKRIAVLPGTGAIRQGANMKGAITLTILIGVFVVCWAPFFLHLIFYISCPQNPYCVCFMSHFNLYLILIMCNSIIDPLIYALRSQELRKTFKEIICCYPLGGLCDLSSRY

Consider `C#CCOCCOCCOCCNc1nc(N2CCN(C(=O)CCCCCCCCCCNC(=O)Cn3cc(CCCCCN)nn3)CC2)nc(N2CCN(C(=O)CCCCCCCCCCNC(=O)[C@@H]([C@H](C)O)n3cc(C)nn3)CC2)n1`, for which the IC50 is 17.8 µM (inactive) in the assay with HEK293 [1]; 36.7 µM (active) in [2]; 6.62 µM (active) in [3]; > 20 µM (inactive) at Bcl-2-related protein A1; 10.7 µM (active) in assay [6]. Besides, the 50% effective concentration (EC50) is > 6.07 µM (active) at Insulin-degrading enzyme [4], > 54.7 µM (inactive) at Insulin-degrading enzyme [5] and > 54.7 µM (inactive) in the assay on HEK293 [7].
`Cc1cc2ccccc2n1CCNCc1c(C(=O)N2CCOCC2)nc2ccccn12`: in assay [8], the AC50 was 110 µM (active).
As for `CN1/C(=C\C(=O)COC(=O)Cn2nnc(-c3ccccc3)n2)C(C)(C)c2ccccc21`, the half-maximal inhibitory concentration (IC50) was 34.5 µM (active) in [9], 51.6 µM (active) at Prothrombin and > 100 µM (inactive) in [10]. Further, the AC50 was 31.6 µM (inconclusive) on Cytochrome P450 2D6 and 1.58 µM (inconclusive) at Cytochrome P450 1A2.
On to `Sc1nnc(-c2cc(-c3ccccc3)[nH]n2)n1/N=C/c1ccc(Cl)c(Cl)c1`, for which the IC50 in [9] is 8.54 µM (active); at SUMO-activating enzyme, 49.8 µM (active); on Prothrombin, > 100 µM (inactive); in assay [10], > 100 µM (inactive).
Consider `CNC(=O)c1cc(Oc2ccc(NC(=O)Nc3ccc(Cl)c(C(F)(F)F)c3)cc2)ccn1` [SORAFENIB TOSYLATE], for which the figures for the IC50 (in assay [11]; in assay [13]; at Melanocortin receptor 4) were 70.6 µM (inactive), > 64.6 µM (inactive) and 4.48 µM (active), respectively. Also, the concentration for a half-maximal effect (EC50) in assay [12] was 14.6 µM (active). Besides, the AC50 is 2.04 µM (active) in assay [14], 1.6 µM (active) with HEK293 [15] and 6.78 µM (active) in the assay on INS1.
With `CCOC(=O)c1c(NC(=O)C(C)OC(=O)C2=COCCO2)sc2c1CCCC2` (configuration not stated), the figures for the IC50 (in assay [13]; at Melanocortin receptor 4) were > 64.6 µM (inactive) and > 7.18 µM (active), respectively.
